Reference: the kinase profiling compilation of Christmann-Franck et al. (2016)

Experiments:
Assay in all cases: radiometric filter-binding kinase assay
MAP3K1 (human) = MAP3K1 (human) (UniProt Q13233)
MST4 (human) = MST4 (human) (UniProt Q9P289)
HIPK3 (human) = HIPK3 (human) (UniProt Q9H422)
TAOK1 (human) = TAOK1 (human) (UniProt Q7L7X3)
JAK2 JH1 JH2 (human) = JAK2 JH1 JH2 (human) (UniProt O60674)
ERBB4 (human) = ERBB4 (human) (UniProt Q15303)
NUAK1 (human) = NUAK1 (human) (UniProt O60285)
MARK4 (human) = MARK4 (human) (UniProt Q96L34)
HIPK1 (human) = HIPK1 (human) (UniProt Q86Z02)
AURKA (human) = AURKA (human) (UniProt O14965)
[1] = system: SGK1 (human), O00141 [S422D]
EEF2K (human) = EEF2K (human) (UniProt O00418)
CHEK2 (human) = CHEK2 (human) (UniProt O96017)
Sequence of CHEK2 (human) (O96017 whole entry, looked up): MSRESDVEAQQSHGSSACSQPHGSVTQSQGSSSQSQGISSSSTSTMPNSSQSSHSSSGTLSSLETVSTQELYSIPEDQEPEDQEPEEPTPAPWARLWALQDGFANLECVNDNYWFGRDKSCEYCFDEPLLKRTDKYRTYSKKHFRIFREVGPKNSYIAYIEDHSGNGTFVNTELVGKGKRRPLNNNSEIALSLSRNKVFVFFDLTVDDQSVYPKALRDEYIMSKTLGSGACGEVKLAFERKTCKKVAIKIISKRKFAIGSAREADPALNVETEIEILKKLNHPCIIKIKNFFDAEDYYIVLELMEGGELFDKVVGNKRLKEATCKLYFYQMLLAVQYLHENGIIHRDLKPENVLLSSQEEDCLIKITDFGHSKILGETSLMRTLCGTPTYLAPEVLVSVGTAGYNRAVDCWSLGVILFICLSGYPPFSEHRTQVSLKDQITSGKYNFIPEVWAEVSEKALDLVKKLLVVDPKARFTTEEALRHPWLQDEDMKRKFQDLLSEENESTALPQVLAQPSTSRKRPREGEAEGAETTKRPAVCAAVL

PAK6 (human) = PAK6 (human) (UniProt Q9NQU5)
NTRK1 (human) = NTRK1 (human) (UniProt P04629)
RPS6KA5 KD1 KD2 (human) = RPS6KA5 KD1 KD2 (human) (UniProt O75582)
Sequence of RPS6KA5 KD1 KD2 (human) (O75582 whole entry, looked up): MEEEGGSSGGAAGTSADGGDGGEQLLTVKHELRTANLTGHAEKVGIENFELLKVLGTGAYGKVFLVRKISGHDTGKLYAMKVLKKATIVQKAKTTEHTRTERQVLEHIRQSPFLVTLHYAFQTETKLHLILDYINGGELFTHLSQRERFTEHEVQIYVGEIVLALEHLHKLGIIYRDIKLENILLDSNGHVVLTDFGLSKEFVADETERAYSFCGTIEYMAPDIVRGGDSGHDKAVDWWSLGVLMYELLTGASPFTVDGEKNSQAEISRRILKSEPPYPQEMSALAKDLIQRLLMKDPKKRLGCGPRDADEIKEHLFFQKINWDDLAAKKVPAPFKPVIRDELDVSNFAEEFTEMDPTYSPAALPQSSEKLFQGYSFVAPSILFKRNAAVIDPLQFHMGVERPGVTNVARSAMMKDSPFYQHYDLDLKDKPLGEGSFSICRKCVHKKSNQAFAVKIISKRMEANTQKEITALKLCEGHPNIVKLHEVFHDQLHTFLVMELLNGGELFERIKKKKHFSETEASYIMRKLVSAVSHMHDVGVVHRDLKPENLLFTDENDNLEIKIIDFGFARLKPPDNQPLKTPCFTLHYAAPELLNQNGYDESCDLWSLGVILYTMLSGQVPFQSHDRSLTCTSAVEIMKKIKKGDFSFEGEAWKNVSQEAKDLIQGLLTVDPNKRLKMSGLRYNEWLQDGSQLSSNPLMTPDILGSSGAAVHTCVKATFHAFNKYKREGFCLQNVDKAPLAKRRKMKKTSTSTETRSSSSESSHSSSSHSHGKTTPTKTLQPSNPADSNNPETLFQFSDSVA

MAPK3 (human) = MAPK3 (human) (UniProt P27361)
MAPK1 (human) = MAPK1 (human) (UniProt P28482)
CLK2 (human) = CLK2 (human) (UniProt P49760)
PLK1 (human) = PLK1 (human) (UniProt P53350)
EPHB4 (human) = EPHB4 (human) (UniProt P54760)
MARK3 (human) = MARK3 (human) (UniProt P27448)
Sequence of MARK3 (human) (P27448 whole entry, looked up): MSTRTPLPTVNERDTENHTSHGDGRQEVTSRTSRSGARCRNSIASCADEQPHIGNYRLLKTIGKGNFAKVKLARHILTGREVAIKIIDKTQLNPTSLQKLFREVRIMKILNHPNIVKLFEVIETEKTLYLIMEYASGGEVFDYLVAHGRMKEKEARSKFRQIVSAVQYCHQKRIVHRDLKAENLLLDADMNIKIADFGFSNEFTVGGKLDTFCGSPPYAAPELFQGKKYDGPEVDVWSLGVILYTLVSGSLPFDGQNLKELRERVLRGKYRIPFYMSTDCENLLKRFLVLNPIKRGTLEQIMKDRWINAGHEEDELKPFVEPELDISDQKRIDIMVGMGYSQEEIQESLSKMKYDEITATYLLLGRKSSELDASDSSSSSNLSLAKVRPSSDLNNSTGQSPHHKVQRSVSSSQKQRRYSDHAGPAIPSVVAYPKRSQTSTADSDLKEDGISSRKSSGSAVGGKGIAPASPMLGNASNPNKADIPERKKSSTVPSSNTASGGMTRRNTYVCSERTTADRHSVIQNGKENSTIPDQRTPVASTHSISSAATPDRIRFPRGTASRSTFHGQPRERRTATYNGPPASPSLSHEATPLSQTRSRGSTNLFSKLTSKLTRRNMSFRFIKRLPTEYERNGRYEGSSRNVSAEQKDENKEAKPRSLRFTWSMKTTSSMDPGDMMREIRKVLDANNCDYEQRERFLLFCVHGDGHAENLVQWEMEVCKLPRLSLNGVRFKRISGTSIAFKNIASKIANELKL

MAP3K5 (human) = MAP3K5 (human) (UniProt Q99683)
STK3 (human) = STK3 (human) (UniProt Q13188)
DAPK1 (human) = DAPK1 (human) (UniProt P53355)
BRSK2 (human) = BRSK2 (human) (UniProt Q8IWQ3)
RPS6KA1 KD1 KD2 (human) = RPS6KA1 KD1 KD2 (human) (UniProt Q15418)
Sequence of RPS6KA1 KD1 KD2 (human) (Q15418 whole entry, looked up): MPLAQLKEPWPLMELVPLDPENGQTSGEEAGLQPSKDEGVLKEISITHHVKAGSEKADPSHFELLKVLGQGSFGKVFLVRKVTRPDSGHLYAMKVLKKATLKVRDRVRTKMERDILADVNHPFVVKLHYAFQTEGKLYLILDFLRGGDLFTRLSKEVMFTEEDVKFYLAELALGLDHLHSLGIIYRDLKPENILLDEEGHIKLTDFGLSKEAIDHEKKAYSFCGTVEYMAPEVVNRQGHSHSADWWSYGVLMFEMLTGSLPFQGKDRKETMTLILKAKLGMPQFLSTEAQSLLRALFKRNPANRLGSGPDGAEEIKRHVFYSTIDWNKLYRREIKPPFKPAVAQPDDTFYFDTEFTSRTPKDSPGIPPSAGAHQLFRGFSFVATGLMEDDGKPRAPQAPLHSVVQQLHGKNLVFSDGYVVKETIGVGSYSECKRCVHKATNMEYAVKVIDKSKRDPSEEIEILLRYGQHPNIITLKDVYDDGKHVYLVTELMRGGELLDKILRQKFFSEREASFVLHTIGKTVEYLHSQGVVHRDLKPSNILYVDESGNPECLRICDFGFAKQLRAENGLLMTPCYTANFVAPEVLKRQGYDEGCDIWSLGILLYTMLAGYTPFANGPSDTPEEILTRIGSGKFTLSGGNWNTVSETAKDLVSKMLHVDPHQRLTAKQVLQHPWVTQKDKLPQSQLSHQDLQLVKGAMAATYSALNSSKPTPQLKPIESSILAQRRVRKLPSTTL

SRC (human) = SRC (human) (UniProt P12931)
RPS6KA3 KD1 KD2 (human) = RPS6KA3 KD1 KD2 (human) (UniProt P51812)
Sequence of RPS6KA3 KD1 KD2 (human) (P51812 whole entry, looked up): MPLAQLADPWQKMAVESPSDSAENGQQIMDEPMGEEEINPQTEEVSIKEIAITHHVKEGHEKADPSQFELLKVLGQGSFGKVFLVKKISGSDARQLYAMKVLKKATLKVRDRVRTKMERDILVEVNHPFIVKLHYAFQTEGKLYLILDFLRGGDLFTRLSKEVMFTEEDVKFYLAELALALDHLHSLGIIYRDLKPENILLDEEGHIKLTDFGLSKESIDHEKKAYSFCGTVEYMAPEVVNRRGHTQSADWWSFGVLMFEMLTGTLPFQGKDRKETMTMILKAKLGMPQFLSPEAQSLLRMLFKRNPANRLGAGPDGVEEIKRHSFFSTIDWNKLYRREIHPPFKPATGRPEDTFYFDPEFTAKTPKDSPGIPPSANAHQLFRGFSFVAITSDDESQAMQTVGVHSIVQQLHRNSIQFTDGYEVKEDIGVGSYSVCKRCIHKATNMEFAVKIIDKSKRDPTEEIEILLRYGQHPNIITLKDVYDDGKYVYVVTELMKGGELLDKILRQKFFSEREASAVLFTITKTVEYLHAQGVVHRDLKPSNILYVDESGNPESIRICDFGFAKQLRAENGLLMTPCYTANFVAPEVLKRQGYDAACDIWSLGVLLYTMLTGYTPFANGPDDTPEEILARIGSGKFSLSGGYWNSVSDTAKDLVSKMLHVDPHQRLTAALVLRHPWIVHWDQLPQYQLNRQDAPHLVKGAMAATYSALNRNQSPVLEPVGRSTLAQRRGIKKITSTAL

PRKCZ (human) = PRKCZ (human) (UniProt Q05513)
GCK (human) = GCK (human) (UniProt Q12851)
CDK2 CCNA2 (human) = CDK2 CCNA2 (human) (UniProt P20248+P24941)
FLT1 (human) = FLT1 (human) (UniProt P17948)
CHEK1 (human) = CHEK1 (human) (UniProt O14757)
PRKCA (human) = PRKCA (human) (UniProt P17252)

Sequence of MAP3K1 (human) (Q13233 whole entry, looked up): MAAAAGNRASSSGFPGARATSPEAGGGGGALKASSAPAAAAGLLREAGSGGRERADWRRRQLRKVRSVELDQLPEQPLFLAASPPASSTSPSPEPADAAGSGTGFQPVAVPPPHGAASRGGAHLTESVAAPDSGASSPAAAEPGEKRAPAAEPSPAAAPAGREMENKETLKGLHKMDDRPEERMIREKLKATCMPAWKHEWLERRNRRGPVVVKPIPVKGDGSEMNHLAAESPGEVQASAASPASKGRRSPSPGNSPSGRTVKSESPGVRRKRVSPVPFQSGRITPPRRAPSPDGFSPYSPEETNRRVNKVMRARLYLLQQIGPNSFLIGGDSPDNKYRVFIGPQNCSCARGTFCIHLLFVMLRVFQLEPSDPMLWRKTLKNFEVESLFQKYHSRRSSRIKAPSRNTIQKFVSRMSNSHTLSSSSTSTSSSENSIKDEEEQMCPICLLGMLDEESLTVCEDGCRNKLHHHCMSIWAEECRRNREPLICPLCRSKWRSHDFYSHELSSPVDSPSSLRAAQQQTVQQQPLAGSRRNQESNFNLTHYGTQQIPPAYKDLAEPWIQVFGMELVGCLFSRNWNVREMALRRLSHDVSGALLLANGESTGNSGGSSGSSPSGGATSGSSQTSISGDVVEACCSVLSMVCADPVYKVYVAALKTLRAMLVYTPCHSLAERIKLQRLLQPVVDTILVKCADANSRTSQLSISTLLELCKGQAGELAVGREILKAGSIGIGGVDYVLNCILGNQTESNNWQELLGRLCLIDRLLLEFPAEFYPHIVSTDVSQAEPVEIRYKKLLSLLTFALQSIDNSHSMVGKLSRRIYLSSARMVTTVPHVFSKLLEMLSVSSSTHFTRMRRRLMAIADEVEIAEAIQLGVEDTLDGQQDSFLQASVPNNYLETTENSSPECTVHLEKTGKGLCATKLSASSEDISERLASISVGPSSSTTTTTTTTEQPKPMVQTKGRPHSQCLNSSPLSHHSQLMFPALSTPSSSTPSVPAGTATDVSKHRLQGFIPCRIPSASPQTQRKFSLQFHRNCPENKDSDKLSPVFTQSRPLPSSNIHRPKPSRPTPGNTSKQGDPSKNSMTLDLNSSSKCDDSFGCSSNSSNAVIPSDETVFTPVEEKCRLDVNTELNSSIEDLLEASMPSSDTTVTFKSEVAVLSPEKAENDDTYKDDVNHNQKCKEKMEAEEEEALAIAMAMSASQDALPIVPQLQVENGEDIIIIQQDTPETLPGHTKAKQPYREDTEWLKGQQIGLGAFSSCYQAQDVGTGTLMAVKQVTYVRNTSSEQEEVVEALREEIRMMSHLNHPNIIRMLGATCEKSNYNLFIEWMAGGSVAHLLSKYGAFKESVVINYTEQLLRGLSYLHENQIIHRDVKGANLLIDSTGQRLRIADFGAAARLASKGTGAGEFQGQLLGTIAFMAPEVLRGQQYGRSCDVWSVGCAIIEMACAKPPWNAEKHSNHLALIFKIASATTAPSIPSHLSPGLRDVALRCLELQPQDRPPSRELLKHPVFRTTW

## NC1(c2ccc(-c3nc4ccn5c(=O)[nH]nc5c4cc3-c3ccccc3)cc2)CCC1
MAP3K1 (human); compound 0.1 µM
  residual activity: 114%
MAP3K1 (human); compound 1.0 µM
  residual activity: 101%
MAP3K1 (human); compound 10.0 µM
  residual activity: 83%
MST4 (human); compound 0.1 µM
  residual activity: 95%
MST4 (human); compound 1.0 µM
  residual activity: 103%
MST4 (human); compound 10.0 µM
  residual activity: 105%
HIPK3 (human); compound 0.1 µM
  residual activity: 117%
HIPK3 (human); compound 1.0 µM
  residual activity: 100%
HIPK3 (human); compound 10.0 µM
  residual activity: 100%
TAOK1 (human); compound 0.1 µM
  residual activity: 104%
TAOK1 (human); compound 1.0 µM
  residual activity: 90%
TAOK1 (human); compound 10.0 µM
  residual activity: 85%
JAK2 JH1 JH2 (human); compound 1.0 µM
  residual activity: 84%
JAK2 JH1 JH2 (human); compound 10.0 µM
  residual activity: 94%
ERBB4 (human); compound 0.1 µM
  residual activity: 111%
ERBB4 (human); compound 1.0 µM
  residual activity: 95%
NUAK1 (human); compound 0.1 µM
  residual activity: 101%
NUAK1 (human); compound 1.0 µM
  residual activity: 102%
MARK4 (human); compound 0.1 µM
  residual activity: 98%
MARK4 (human); compound 1.0 µM
  residual activity: 102%
MARK4 (human); compound 10.0 µM
  residual activity: 92%
HIPK1 (human); compound 0.1 µM
  residual activity: 91%
HIPK1 (human); compound 1.0 µM
  residual activity: 85%
HIPK1 (human); compound 10.0 µM
  residual activity: 97%
AURKA (human); compound 0.1 µM
  residual activity: 114%
AURKA (human); compound 1.0 µM
  residual activity: 89%
AURKA (human); compound 10.0 µM
  residual activity: 93%
[1]; compound 0.1 µM
  residual activity: 90%
[1]; compound 1.0 µM
  residual activity: 85%
[1]; compound 10.0 µM
  residual activity: 63%
EEF2K (human); compound 0.1 µM
  residual activity: 101%
EEF2K (human); compound 1.0 µM
  residual activity: 104%
EEF2K (human); compound 10.0 µM
  residual activity: 109%
CHEK2 (human); compound 0.1 µM
  residual activity: 122%
CHEK2 (human); compound 1.0 µM
  residual activity: 81%
CHEK2 (human); compound 10.0 µM
  residual activity: 39%
PAK6 (human); compound 0.1 µM
  residual activity: 85%
PAK6 (human); compound 1.0 µM
  residual activity: 100%
PAK6 (human); compound 10.0 µM
  residual activity: 91%
NTRK1 (human); compound 0.1 µM
  residual activity: 107%
NTRK1 (human); compound 1.0 µM
  residual activity: 90%
NTRK1 (human); compound 10.0 µM
  residual activity: 87%
RPS6KA5 KD1 KD2 (human); compound 0.1 µM
  residual activity: 84%
RPS6KA5 KD1 KD2 (human); compound 1.0 µM
  residual activity: 90%
RPS6KA5 KD1 KD2 (human); compound 10.0 µM
  residual activity: 76%
MAPK3 (human); compound 0.1 µM
  residual activity: 108%
MAPK3 (human); compound 1.0 µM
  residual activity: 87%
MAPK3 (human); compound 10.0 µM
  residual activity: 93%
MAPK1 (human); compound 0.1 µM
  residual activity: 104%
MAPK1 (human); compound 1.0 µM
  residual activity: 96%
MAPK1 (human); compound 10.0 µM
  residual activity: 75%
CLK2 (human); compound 0.1 µM
  residual activity: 103%
CLK2 (human); compound 1.0 µM
  residual activity: 81%
CLK2 (human); compound 10.0 µM
  residual activity: 67%
PLK1 (human); compound 1.0 µM
  residual activity: 105%
PLK1 (human); compound 10.0 µM
  residual activity: 94%
EPHB4 (human); compound 0.1 µM
  residual activity: 101%
EPHB4 (human); compound 1.0 µM
  residual activity: 105%
EPHB4 (human); compound 10.0 µM
  residual activity: 86%
MARK3 (human); compound 0.1 µM
  residual activity: 85%
MARK3 (human); compound 1.0 µM
  residual activity: 99%
MARK3 (human); compound 10.0 µM
  residual activity: 91%
MAP3K5 (human); compound 0.1 µM
  residual activity: 97%
MAP3K5 (human); compound 1.0 µM
  residual activity: 87%
MAP3K5 (human); compound 10.0 µM
  residual activity: 90%
STK3 (human); compound 0.1 µM
  residual activity: 79%
STK3 (human); compound 1.0 µM
  residual activity: 97%
STK3 (human); compound 10.0 µM
  residual activity: 94%
DAPK1 (human); compound 0.1 µM
  residual activity: 85%
DAPK1 (human); compound 1.0 µM
  residual activity: 90%
DAPK1 (human); compound 10.0 µM
  residual activity: 48%
BRSK2 (human); compound 0.1 µM
  residual activity: 102%
BRSK2 (human); compound 1.0 µM
  residual activity: 88%
BRSK2 (human); compound 10.0 µM
  residual activity: 94%
RPS6KA1 KD1 KD2 (human); compound 0.1 µM
  residual activity: 101%
RPS6KA1 KD1 KD2 (human); compound 1.0 µM
  residual activity: 87%
RPS6KA1 KD1 KD2 (human); compound 10.0 µM
  residual activity: 62%
SRC (human); compound 0.1 µM
  residual activity: 101%
SRC (human); compound 1.0 µM
  residual activity: 89%
SRC (human); compound 10.0 µM
  residual activity: 105%
RPS6KA3 KD1 KD2 (human); compound 0.1 µM
  residual activity: 91%
RPS6KA3 KD1 KD2 (human); compound 1.0 µM
  residual activity: 90%
RPS6KA3 KD1 KD2 (human); compound 10.0 µM
  residual activity: 81%
PRKCZ (human); compound 0.1 µM
  residual activity: 97%
PRKCZ (human); compound 1.0 µM
  residual activity: 105%
PRKCZ (human); compound 10.0 µM
  residual activity: 97%
GCK (human); compound 0.1 µM
  residual activity: 108%
GCK (human); compound 1.0 µM
  residual activity: 97%
GCK (human); compound 10.0 µM
  residual activity: 85%
CDK2 CCNA2 (human); compound 0.1 µM
  residual activity: 100%
CDK2 CCNA2 (human); compound 1.0 µM
  residual activity: 84%
CDK2 CCNA2 (human); compound 10.0 µM
  residual activity: 75%
FLT1 (human); compound 0.1 µM
  residual activity: 88%
FLT1 (human); compound 1.0 µM
  residual activity: 81%
FLT1 (human); compound 10.0 µM
  residual activity: 53%
CHEK1 (human); compound 0.1 µM
  residual activity: 96%
CHEK1 (human); compound 1.0 µM
  residual activity: 78%
CHEK1 (human); compound 10.0 µM
  residual activity: 45%
PRKCA (human); compound 0.1 µM
  residual activity: 97%
PRKCA (human); compound 1.0 µM
  residual activity: 94%
PRKCA (human); compound 10.0 µM
  residual activity: 98%
